Four molecules from ChEMBL document CHEMBL1130975, “Preparation of alpha-keto ester enol acetates as potential prodrugs of human neutrophil elastase inhibitors” (Bioorg Med Chem Lett, 1998) can be followed below.

The target in test [1] is T1, Neutrophil elastase (Homo sapiens) (UniProt P08246).
T1 sequence (whole entry): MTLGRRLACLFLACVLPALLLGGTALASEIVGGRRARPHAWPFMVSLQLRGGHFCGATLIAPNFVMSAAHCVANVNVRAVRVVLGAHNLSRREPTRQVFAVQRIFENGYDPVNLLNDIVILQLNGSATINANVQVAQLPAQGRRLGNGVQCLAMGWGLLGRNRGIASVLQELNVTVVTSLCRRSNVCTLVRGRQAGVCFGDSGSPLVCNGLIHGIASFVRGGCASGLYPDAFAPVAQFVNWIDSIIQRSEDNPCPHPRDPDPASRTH
Kind of test: Tested for rate of substrate hydrolysis in the presence of human neutrophil elastase at a concentration of 1 uM.

The target of test [2] is T1, Neutrophil elastase (Homo sapiens). Kind of test: Tested for rate of substrate hydrolysis in the presence of human neutrophil elastase at a concentration of 9 uM.
Test [3] concerns the target T2, S-formylglutathione hydrolase (Sus scrofa) (UniProt Q9GJT2).
T2 sequence (whole entry): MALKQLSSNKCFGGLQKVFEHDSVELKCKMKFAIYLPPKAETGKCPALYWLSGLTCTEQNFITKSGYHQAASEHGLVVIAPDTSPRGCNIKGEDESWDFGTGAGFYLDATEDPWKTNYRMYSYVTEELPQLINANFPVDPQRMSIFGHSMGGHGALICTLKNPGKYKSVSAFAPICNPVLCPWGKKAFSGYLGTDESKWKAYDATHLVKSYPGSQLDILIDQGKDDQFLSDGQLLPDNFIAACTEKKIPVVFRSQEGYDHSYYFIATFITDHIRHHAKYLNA
The experiment in a line: Tested for rate of substrate hydrolysis in the presence of porcine kidney esterase at a concentration of 1 uM.

In test [4] the target is T2, S-formylglutathione hydrolase (Sus scrofa). The experiment in a line: Tested for rate of substrate hydrolysis in the presence of porcine kidney esterase at a concentration of 9 uM.
Another test deals with T3, Neutrophil elastase (Homo sapiens, UniProt P08246).
T3 sequence (P08246 whole entry): T1 sequence (whole entry)
Kind of test: Tested for rate of substrate hydrolysis in the presence of human neutrophil elastase.

Test [5] addresses T2, S-formylglutathione hydrolase (Sus scrofa). Particulars: 45 nM.
Description: Tested for rate of substrate hydrolysis in the presence of porcine kidney esterase at a concentration of 45 nM
The target in test [6] is T1, Neutrophil elastase (Homo sapiens). The experiment in a line: Tested for rate of substrate hydrolysis in the presence of human neutrophil elastase at a concentration of 10 nM.
For test [7], the target named is T2, S-formylglutathione hydrolase (Sus scrofa). Particulars: 10 nM.
Description: Tested for rate of substrate hydrolysis in the presence of porcine kidney esterase at a concentration of 10 nM
Test [8] addresses T1, Neutrophil elastase (Homo sapiens). Kind of test: Tested for rate of substrate hydrolysis in the presence of human neutrophil elastase at a concentration of 45 nM.

Each structure is given as a SMILES string.

What is called Ki is the dissociation constant of the complex between target and ligand, obtained from inhibition or displacement.

As for `COC(=O)CCC(=O)N[C@@H](C)C(=O)N[C@@H](C)C(=O)N1CCC[C@H]1C(=O)N/C(=C(/OC(C)=O)C(=O)OC)C(C)C`, the Rate in test [1] was found to be 81%; in test [2], 35%; in [3], 24%; in test [4], 2.8%.
For the molecule `COC(=O)C(=O)[C@@H](NC(=O)C1CCCN1C(=O)[C@H](C)NC(=O)[C@H](C)NC(=O)c1ccc(C(=O)NS(=O)(=O)c2ccc(Cl)cc2)cc1)C(C)C` (stereo not given in full), the Ki at Neutrophil elastase came out at 0.002 µM.
`COC(=O)/C(OC(C)=O)=C(\NC(=O)[C@@H]1CCCN1C(=O)[C@H](C)NC(=O)[C@H](C)NC(=O)c1ccc(C(=O)NS(=O)(=O)c2ccc(Cl)cc2)cc1)C(C)C`: the Rate was 37% in test [5], 99% in test [6], 76% in test [7] and 94% in test [8].
For the molecule `COC(=O)CCC(=O)N[C@@H](C)C(=O)N[C@@H](C)C(=O)N1CCC[C@H]1C(=O)N[C@H](C(=O)C(=O)OC)C(C)C`, the Ki on Neutrophil elastase came to 0.2 µM.
